Assay results: patent US9180163B2, “Parstatin peptides” (priority 2009, dated 2015)
Ends that are not written are not given here. * marks the point of attachment. FITC = O=C1OC2(c3ccc(O)cc3Oc3cc(O)ccc32)c2ccc(NC(=S)*)cc21

What was measured:
[1] = system: corneas of Sprague-Dawley rats; assay: corneal histopathology after chemical burn (vessels, neutrophils); assay type: in vivo, rat; settings: 2×100 μg, day 7
Description: After the above-described processes were performed, the rats were sacrificed (7 days) and the eyes were excised. All eyes were sectioned (4 μm) and stained with hematoxylin-eosin. Two independent pathologists, in a blinded manner, evaluated the microvessel density and the inflammatory cell infiltration in each slide. Total corneal vascular vessels and neutrophils were counted at 200× in seven representative stained tissue sections for each eye, covering all cornea area and having a similar distance from the central burn.

caspase-3 in HUVEC cells = assay: caspase-3 activity colorimetric assay; assay type: cell-based, human; settings: 0.5% BSA, 24 h; mouse and scrambled 10 μM
Description: To further support the involvement of caspases in parstatin (1-41) pro-apoptotic effect, its effect on caspase-3 activation was examined using a commercially available kit (Promega, Madison, Wis.). The colorimetric substrate, Ac-DEVD-p-nitroanilide, is cleaved by caspase-3 to release yellow p-nitroanilide, was measured by absorbance at 405 nm to detect caspase activation.
HUVEC cells were grown in 60 mm tissue culture plates until approximately 80% confluency. Cells were treated in absence or in presence of 0.5% BSA or bFGF for 24 h in serum-free medium. Suspended and adherent cells were collected and lysed. Caspase-3 activity was measured by absorbance at 405 nm.

[2] = system: chick chorioallontoic membrane (CAM); assay type: in vivo; settings: 10 nmoles, 48 h
Description: The in vivo chick chorioallontoic membrane (CAM) angiogenesis model was used to evaluate the effect of parstatin (1-41) in angiogenesis. On incubation day 9 of fertilized chicken eggs, an O-ring (1 cm^2) was placed on the surface of the CAM and the vehicle or the indicated substances were placed inside this restricted area. After 48 h, CAMs were fixed in saline-buffered formalin, photographed, and analyzed using the Scion Image software (Scion Image Release Beta 4.0.2 software; Scion Corporation, Frederick, Md.). Image analysis was performed on at least 18 eggs for each group. Vessel number and length were evaluated by pixel counting, and the results expressed as mean percentage of control ±SE. Statistical analyses were performed using a Student's t test.

HUVEC cells [3] = assay: modified Boyden's chamber cell migration assay; assay type: cell-based, human; settings: toward 5% FBS, 6 h; other peptides 10 μM
Description: HUVEC cell migration was assessed using a modified Boyden's chamber assay, i.e., in Transwell cell culture chambers (Corning Life Sciences, Acton, Mass.). Briefly, polycarbonate filters with 8 μm pores were used to separate the upper and the lower chambers. Cells were added to the upper compartment at a density of 10,000 cells/100 μl in serum-free medium containing 0.5% BSA and incubated for 6 h. Directional migration (chemotaxis) in the lower chamber was induced by addition of medium containing 5% FBS to the lower chamber. Where indicated parstatin or other peptides were added to lower chamber.
Cells on the filters were fixed and stained. The non-migrated cells (cells in upper surface) were removed by wiping with cotton swabs. The cells on the lower surface were counted manually under microscope in six predetermined fields. Parstatin (1-41) attenuated chemotactic cell migration through microporous membrane in response to serum (FIG. 3C). When human parstatin was combined with 5% FBS, the number of migrated cells was reduced in concentration-dependent manner.

HUVEC cells [4] = assay: Matrigel capillary tube-like formation; assay type: cell-based, human; settings: 5% FBS, 18 h, parstatin (1-41) 0.3 to 10 μM, other peptides 10 μM
Description: Primary human umbilical vein endothelial cells (HUVEC cells) were obtained from freshly delivered umbilical cords from caesarean births and were grown in M199 medium with 20% fetal bovine serum (FBS) supplemented with endothelial cell growth supplement and heparin. One of the most specific tests for angiogenesis is the measurement of the ability of endothelial cells to form capillary-like structures (i.e., tube formation). Tube formation is a multi-step process involving cell adhesion, migration and differentiation. Tube formation can be enhanced by use of Matrigel or fibrin clots to coat plastic culture dishes and it is an accepted model of angiogenesis.
Matrigel™ (Becton Dickinson Labware, N.J., USA) is a mixture of basement membrane components extracted from the Englebreth-Holm-Swarm tumor. […] Matrigel™ (250 μl) was added to each well of a 24-well plate and allowed to polymerize. A suspension of 40,000 HUVEC cells in M199 medium containing 5% FBS was added into each well coated with Matrigel™.
Cells were treated with increasing concentrations of human parstatin (1-41), scrambled parstatin, or parstatin (24-41) fragment. After 18 hours of incubation, the medium was removed, and the cells were fixed and stained, and tube-like structures were quantitated.

[5] = system: Erk1/2 (p42/44 MAPK) in HUVEC cells; assay: Erk1/2 phosphorylation immunoblot (MAP kinase pathway); assay type: cell-based, human; settings: pretreatment 1 h, 10 μM; stimulated by FBS, bFGF or VEGF
Description: The MAPK (Erk1/2, p42/44) cascade mediates mitogenesis. […] HUVEC cells were cultured in 35 mm tissue culture dishes. After reaching 80% confluency, cells were growth factor-starved and subsequently stimulated for 10 min with vehicle or indicated agents. In combination experiments, cells were pretreated with parstatin or other peptides for 10 to 60 min.
Attached cells were lysed with Laenmli sample buffer, resolved in 10% SDS-PAGE, and transferred to nitrocellulose membranes. Membranes were incubated with primary antibodies against phospho p42/44 mitogen-activated protein kinases (p-Erk1/2, New England Biolabs, UK) and p42/44 Erk1/2 (t-Erk1/2, New England Biolabs, UK). Membranes were then probed with secondary antibodies horseradish peroxidase-conjugated, and proteins were visualized by chemiluminescent detection.

HUVEC cells [6] = assay: Fibrin gel in vitro angiogenesis assay; assay type: cell-based, human; settings: VEGF/bFGF-induced, 24 h; other peptides 10 μM
Description: The ability of endothelial cells to form three-dimensional structures was analyzed using a Fibrin gel in vitro angiogenesis assay kit (Chemicon International Inc. Temecula, Calif.). Fibrin gels were formed in 48-well plates by mixing fibrinogen and thrombin solutions, according to manufacturer instructions. Cells (40,000 cells/well) were then added and cultured in medium containing 2% FBS for 18 h. After the addition of a second layer of fibrin gel, endothelial cells sandwiched within fibrin gels were cultured in serum-free medium containing 0.5% bovine serum albumin (BSA) and the combination of VEGF/bFGF for 24 h. Where indicated, parstatin (1-41) or other indicated peptides were added. Capillary-like network was photographed and measured.

HUVEC cells [7] = assay: MTT cell proliferation assay; assay type: cell-based, human
Description: Cell proliferation was evaluated using a 3-(4,5-[…])-2,5-diphenyltetrazolium bromide (MTT, Sigma-Aldrich, St. Louis, Mo.) assay. Endothelial cells (10,000/well) were seeded in 24-well tissue culture plates and incubated with growth medium for 24 h. Cells were then treated with the vehicle or the indicated peptides in medium containing 5% FBS for 1 to 3 days. After 24, 48, or 72 hours, MTT solution (5 mg/ml) was added to each well and incubated for 3 h at 37° C. The blue formazan crystals were solubilized by addition of DMSO and absorbance at 450 nm was recorded using a 96-well plate reader.

HUVEC cells [8] = assay: [3H]-thymidine incorporation (DNA synthesis); assay type: cell-based, human; settings: serum, bFGF or VEGF; comparison peptides 10 μM
Description: The ability of parstatin (1-41) to inhibit DNA synthesis of endothelial cells was assessed in thymidine incorporation assays. HUVEC cells were grown until 60-80% confluent in 24-well plates. Cells were treated with indicated peptides in serum-free medium containing either 0.5% BSA, or VEGF, or bFGF, or medium containing 5% FBS, or epidermal growth factor (EGF), or heparin-binging EGF (HB-EGF) for 18 hours. All cells were pulsed with 0.5 μCi/ml [3H]-thymidine (ICN Biomedicals Inc., Irvine Calif.) for additional 6 h. Radioactivity incorporated into DNA was determined in liquid scintillation counter.

HUVEC cells [9] = assay: cellular uptake by fluorescence microscopy; assay type: cell-based, human; settings: FITC-labeled peptide
Description: 4′,6-Diamidino-2-phenylindole (DAPI) was used to stain nuclei of all cells. Cell fluorescence was imaged on a Nikon Eclipse TE2000-U microscope. FITC and DAPI were excited using 490-nm and 360-nm filters, respectively. The emission signals were sorted out using 514 and 460 filters for the FITC and DAPI, respectively. HUVEC cells were treated with 10 μM of parstatin (1-41)-FITC for different time intervals. […] FITC signal was detected as early as 5 min of cell exposure to parstatin (1-41)-FITC (FIG. 9C).

HUVEC cells [10] = assay: cellular uptake of FITC-labeled peptides by flow cytometry; assay type: cell-based, human; settings: 30 min exposure
Description: HUVEC cells in the exponential growth phase were exposed to various concentrations of parstatin (1-41)-FITC in serum-free medium containing 0.5% BSA. After incubation times ranging from 1 min to 60 min, cells were washed extensively. Washed cells were incubated for 10 min with trypsin at 37° C. to remove the cell surface-bound parstatin. Suspended cells were subsequently centrifuged, washed, and analyzed on FACS flow cytometer (EPICS XL-MCL; Coulter).
The uptake of a given parstatin (1-41)-FITC into cells was assessed by the change of the FITC-positive cell population compared with untreated control cell samples.

| Substance | mean number (density) of vascular vessels per section [1] | numbers of neutrophils [1] [cells/corneal section] | caspase-3 activity (caspase-3 in HUVEC cells) | inhibition of the basal level of angiogenesis in CAMs [2] | chemotactic cell migration (HUVEC cells [3]) | tube formation on Matrigel (HUVEC cells [4]) | activation of Erk1/2 [5] | capillary-like network (total capillary tube length) in fibrin gels (HUVEC cells [6]) | HUVEC cell proliferation (HUVEC cells [7]; 10 μM) | DNA synthesis in HUVEC cells (HUVEC cells [8]) | cell fluorescence in microscope images (HUVEC cells [9]) | fraction of FITC-positive cell population (HUVEC cells [10]) | tube formation on Matrigel (HUVEC cells [4]; listed as mouse parstatin (1-41)) | IC50 (HUVEC cells [7]; stimulus not given, read-out: half-maximal concentration, inhibiting cell proliferation) [µM] |
| --- | --- | --- | --- | --- | --- | --- | --- | --- | --- | --- | --- | --- | --- | --- |
| LRTNASLLVPFLTARAKSSGTREAADPPRLMCLRPLARRCG (Scrambled synthetic peptide) [scrambled parstatin, reference compound] | 77.17±3.11 | 39±2.54 | without effect | did not cause any significant effect | without effect | did not affect | did not alter | did not affect | without effect | did not cause any significant effect |  |  |  |  |
| TRARRPESKATNATLDPRK-FITC (TRARRPESKATNATLDPRK(FITC); also: FITC linked to the C-terminal lysine; listed as Homo sapiens) [parstatin (24-41)-FITC, FITC conjugated to human parstatin (24-41) fragment] |  |  |  |  |  |  |  |  |  |  | no fluorescence was observed | minimal and comparable with that of control cells |  |  |
| MGPRRLLIVALGLSLCGPLLSSRVPMSQPESERTDATVNPR [mouse parstatin, 1-41-amino acids cleaved N-terminal fragment of mouse PAR-1] |  |  | moderate increase |  | significant inhibitory effect, but to a lower extent | effective in inhibiting tube formation | less pronounced effect | less pronounced, but still significant, inhibitory effect |  | significant, but less effective inhibitory effect |  |  | less pronounced, but still significant, inhibitory effect | 20 |
